Test results: ChEMBL document CHEMBL3507680, “University of Dundee, Gates Library screen for HepG2 cell viability”

Assay: Human HepG2 cell viability assay in 384 well format
Format: toxicity, cell-based
Set-up: dose 125 nL, time 70.5 hour; cytotoxicity at 70.5 h: concentration not given beside the values
Conditions: HepG2 cells, read-out: Inhibition

Row | SMILES | cytotoxicity at 70.5 h [%]
1 | c1ccc(CN2CCN(C3CCOC4(CCOCC4)C3)CC2)nc1 (configuration not stated) | -16.9
2 | CSc1ncc(CN2C[C@H]3CC[C@@H]2CN(C2CCOCC2)C3)cn1 | -3.4
3 | O=C(N1CCOCC1)N1C[C@H]2CC[C@@H]1CN(C1Cc3ccccc3C1)C2 | 5.2
4 | CCN(CC)C(=O)CN(C)CCn1nc2ccccn2c1=O | -4.24
5 | O=C(Nc1ccccc1F)N(CCO)CCOCC(F)(F)F | -4.12
6 | CC(=O)c1ccccc1-c1nc(CC2CCN(C)CC2)no1 | 16.1
7 | Cc1nccc(C(=O)N2CCCC2c2noc(C(C)C)n2)n1 (configuration not stated) | 22.8
8 | CCCNC(=O)C(C)Nc1ccc(COCC)cc1 (configuration not stated) | -0.943
9 | NC(=O)C1Cn2ccnc2C2(CCN(C(=O)c3ccncc3)CC2)O1 (configuration not stated) | -4.78
10 | Cc1cc(C)n(CC(=O)NC2CCCCNC2=O)n1 (configuration not stated) | -6.78
11 | COc1cc(NCC(c2ccccn2)N2CCOCC2)ncn1 (configuration not stated) | -3.18
12 | Cc1ccc(N2C[C@H]3CCN(Cc4ccncc4)C[C@H]3C2)nn1 | -9.91
13 | COc1cccc(CNC(C)c2ccc(-n3ccnc3)cc2)c1OC (configuration not stated) | -8.35
14 | O=C(Nc1cc2c(cc1Br)OCCO2)NC1CCS(=O)(=O)C1 (configuration not stated) | 10.1
15 | CCN(C)CC1CCN(c2ncc(Br)cn2)C1 (configuration not stated) | 9.92
16 | Cc1cc(CN2CCN(S(=O)(=O)c3c(C)c(Cl)cc(C)c3Cl)CC2)on1 | -9.59
17 | Cc1ccc(-n2ccnc2)c(C(=O)NCCCN(C)C)c1 | 2
18 | CC(c1ccc(-c2cnc(N)nc2)cc1)N1CCOCC1 (configuration not stated) | -3.76
19 | CC(C)c1n[nH]c(C2CN(C(=O)c3ccnc(C4CC4)n3)CCO2)n1 (configuration not stated) | 16.3
20 | Cc1nc(CCCNC(=O)[C@H]2CNC[C@@H](C(=O)N3CCCC3)C2)sc1C | -5.47
21 | O=C(c1cccn1Cc1cccs1)N1CCC(C(=O)N2CCCC2)CC1 | -5.45
22 | CCN(C)S(=O)(=O)N(Cc1cscn1)c1ccccc1 | -7.14
23 | CCCc1nc(CN(CC)C(=O)c2ccc(OC)c(OC)c2)no1 | 25.6

Row | SMILES | cytotoxicity at 70.5 h [%]
24 | O=C(CCC(F)(F)F)N1CCCC(c2ncc[nH]2)C1 (configuration not stated) | 42.3
25 | CN(C(=O)c1cn(C)cn1)[C@@H]1CCC[C@@H](Oc2ccccc2)[C@@H]1O | -2.57
26 | CO[C@@H]1CCN(Cc2ccoc2)C[C@@H]1Cc1ccccc1 | 1.1
27 | N#Cc1cccnc1N1CCCC(CO)(Cc2cccc(Cl)c2)C1 (configuration not stated) | 2.5
28 | Cc1cc(C)n(-c2ccc(C(C)NS(N)(=O)=O)cc2)n1 (configuration not stated) | -11.9
29 | COc1ccc(CN2CCCCC2c2n[nH]cc2-c2cc(C)no2)cc1 (configuration not stated) | 11
30 | Cc1ccccc1CS(=O)(=O)CC(=O)N(C)Cc1ccccc1F | -1.24
31 | COc1ccc2c(c1)C(=O)NC1(CC2)CCN(Cc2ccccc2)C1 (configuration not stated) | -3.55
32 | Cc1nc(S(=O)(=O)N2CCC3(CCCCC3)C2)cn1C | -1.45
33 | O=C(N1CCC(Oc2ccncc2)CC1)C1(c2ccc(F)cc2)CC1 | -3.22
34 | O=C(c1cccc(Cl)c1)N1CCCC2(CCCNC2)C1 (configuration not stated) | -1.15
35 | CC(c1ccccc1)N(C)C(=O)CNCCn1cccn1 (configuration not stated) | -10.3
36 | CC(C)N1CCCC2(CCN(C(=O)CCCn3cncn3)C2)C1=O (configuration not stated) | -4.98
37 | Cc1cnccc1NCCNC(=O)C1CCCN(Cc2ccco2)C1 (configuration not stated) | 9.92
38 | CC(=O)Nc1ccc(CN2C[C@H]3CC[C@@H]2CN(c2ncccn2)C3)cc1 | -4.04
39 | Cc1ccc2c(n1)N(Cc1cccnc1)CCN(C(=O)C1CC=CC1)C2 | -9.79
40 | CN(C)Cc1ccnc(C2CN(CCc3ccccc3)CCO2)n1 (configuration not stated) | 17.9
41 | COc1ncccc1C1CC(=O)NCc2nc3ccccn3c21 (configuration not stated) | 1.55
42 | Cc1ccc(Nc2nccc(C3CCN(CC(N)=O)C3)n2)nc1 (configuration not stated) | -8.32
43 | Cc1ccc(S(=O)(=O)N2CCC3(CC(C(=O)NC4CCC4)=NO3)C2)cc1 (configuration not stated) | 18.4
44 | O=C(Nc1ccc(-n2cccn2)cc1)N1CCOCC(O)C1 (configuration not stated) | -20.9
45 | O=c1cc(-c2ccncc2)nc(-c2ccc(CN3CC[C@@H](O)C3)cc2)[nH]1 | -11.3
46 | O=C(CCn1cnc2ccccc21)N1CCN2CCCCC2C1 (configuration not stated) | 27.2

Row | SMILES | cytotoxicity at 70.5 h [%]
47 | CSc1ncc(C(=O)N(C)C(C)Cc2ccccn2)cn1 (configuration not stated) | -5.33
48 | CO[C@@H]1CCN(Cc2ccccn2)[C@@H]2CN(Cc3ccco3)C[C@@H]21 | 32.3
49 | CNC(=O)CCc1cc(C2CCN(c3cnccn3)CC2)nc(C)n1 | -8.81
50 | CC(C)(C)C(=O)NCCCc1nc2ccccc2[nH]1 | -11.6
51 | NC(=O)CN1CCCN(C(=O)Cc2ccc(F)c(Br)c2)CC1 | -8.24
52 | COc1cccc(CSCC2=Nc3ccccc3S(=O)(=O)N2)c1 | 3.53
53 | COC(=O)[C@H](CCSC)NC(=O)Cc1c(C)nn(-c2ccccc2)c1C | -11.6
54 | CC(C)Cc1cc(C(=O)NCC(O)CN2CCCCCC2)on1 (configuration not stated) | -3.2
55 | Cn1ncc2c1NC(=O)CSC2c1ccc2c(c1)OCO2 (configuration not stated) | 10.3
56 | O=C(CC(F)(F)F)Nc1cc(F)ccc1OCC1CCCO1 (configuration not stated) | -11.3
57 | CCC(=O)c1ccc(OCC(=O)NC(C)c2ncnn2CC)cc1 (configuration not stated) | -17.2
58 | CC(C)(C)n1ccc(C(=O)N2CCCC(c3ccc(C(=O)O)cc3)C2)c1 (configuration not stated) | -13.3
59 | Cc1nn(C)c(C)c1C1CCCN1C(=O)c1cnc2onc(C)c2c1 (configuration not stated) | -7.3
60 | CC(C)OCCCNC(=O)c1cccnc1N1CCOCC1 | 39.8
61 | O=C(O)CCn1ccc(=O)c2ccccc21 | -3.76
62 | Cn1cnnc1C1CCCN(C(=O)COc2ccccc2Cl)C1 (configuration not stated) | -6.87
63 | O=C(c1cccnc1SC/C=C/c1ccccc1)N1CCOCC(O)C1 (configuration not stated) | 1.08
64 | COCCNC(=O)NC1(c2nc(-c3ccncc3)no2)CCCCC1 | 5.97
65 | OC[C@@H]1[C@@H](c2ccccc2)CN2CCN(c3ccccn3)C[C@H]12 | -3.64
66 | CC(=O)N1[C@H](CN(C)C)C[C@@H]2CN(C(=O)c3ccno3)CC[C@@H]21 | -9.81
67 | Cc1cnn(C2CCCN(C(=O)c3cccc4c3OCO4)C2)c1 (configuration not stated) | -10.4
68 | CCOCC(O)CN1CCN(C(=O)c2cccnc2OC)CC1 (configuration not stated) | -18
69 | CCO[C@H]1CN(C)C[C@@H]1NC(=O)c1cc(C)nc2c(C)cccc12 | -8.5

Row | SMILES | cytotoxicity at 70.5 h [%]
70 | O=C(c1ccsc1)N1CCN(CC(O)c2cccc(F)c2)CC1 (configuration not stated) | 9.92
71 | Cc1cccc2nc(CN3CCCC(C)C3)cc(=O)n12 (configuration not stated) | 13.9
72 | COc1ccccc1N(C)Cc1nc2c(cnn2C)c(=O)[nH]1 | -4.86
73 | Cc1cccc(-c2noc(CN3CCc4nn(C)c(=O)cc4C3)n2)c1 | 8.08
74 | CC(C(=O)NCc1ccc(-n2cncn2)nc1)S(C)(=O)=O (configuration not stated) | 0.438
75 | CC(C)c1nn(C)c(N(C)C)c1CNCCC(=O)NC1CCCCC1 | 37.6
76 | CCCN1CCCn2c(nc(CNC(=O)N3CCCC3)cc2=O)C1 | -9.21
77 | NC1C=C(C(F)(F)F)NC=C1c1ccccc1 (configuration not stated) | -0.126
78 | O=C([C@@H]1COC[C@H]2CN(C3CCOCC3)C[C@H]21)N1CCCCO1 | 18.7
79 | Cc1cnn(CC2CCCCN2C(=O)c2cccc(C(N)=O)c2)c1 (configuration not stated) | -1.63
80 | O=C(Cc1ccsc1)N1CCC(c2noc(-c3ccncc3)n2)CC1 | -0.304
81 | COC(=O)c1ncccc1N1CCCCC1 | -6.28
82 | CNc1cc(C)nc(N2CCC3(CC2)[C@H](O)C[C@@H]3OCCN(C)C)n1 | -1.9
83 | COCCNc1ccc(CC2CCCN(Cc3c[nH]cn3)C2)nn1 (configuration not stated) | -0.712
84 | O=c1ccc(-c2cccs2)nn1CN1CCN(C2CCS(=O)(=O)C2)CC1 (configuration not stated) | -10.9
85 | Cc1ncc(CN(C)C(=O)c2ccc3c(c2O)OC(C)(C)C3)s1 | -1.48
86 | Cc1cc(C(=O)N2C[C@@H]3OCCN(CCN4CCCC4)[C@@H]3C2)c(C)o1 | -7.77
87 | O=C1CC2(CCN(Cc3ccncc3)C2)CN1c1cccc(F)c1 (configuration not stated) | -12.5
88 | O=c1[nH]c2ncccc2n1C1CCCC1 | -0.61
89 | CCCn1ncc(-c2ccnc(N[C@@H]3C[C@@H]4CC[C@H]3C4)n2)c1C | -2.1
90 | COc1cc(C#N)ccc1OCC(=O)NS(=O)(=O)c1cccnc1 | -7.29
91 | Cc1c(Br)cccc1C(=O)NCC1CCNCC1 | 8.92
92 | Cc1cnn(CCNCc2c(C)nn(Cc3ccccc3)c2C)c1 | 23.6

Row | SMILES | cytotoxicity at 70.5 h [%]
93 | COc1ccccc1NC(=O)NCC(O)c1ccc(F)cc1F (configuration not stated) | 17.3
94 | O=C1CC[C@]2(CC[C@@H](NC3CCOCC3)CC2)N1Cc1ccccc1 | -2.63
95 | Cc1noc(-c2ccnc(Oc3cccc(CN4CCCC4)c3F)c2)n1 | -14.1
96 | Cc1nn(C)c(N(C)C)c1CNCC(O)COc1ccccc1 (configuration not stated) | -0.0724
97 | CC1CCc2n[nH]c(C(=O)NCCCc3ccccn3)c2C1 (configuration not stated) | -7.91
98 | CC(C)(C)CC(=O)NC(C)(C(N)=O)c1cccc(Cl)c1 (configuration not stated) | 17.3
99 | N#Cc1ccccc1N1CCCN(C(=O)CCc2ccsc2)CC1 | 1.39
100 | CCc1nc(CN2CCN(C(=O)c3cc(C)nn3C)CC2)cs1 | -6.68
101 | CNC(=O)C1CCC2(CCN(c3ncc(C)cn3)CC2)CO1 (configuration not stated) | 4.35
102 | Cc1nn(C)c2cn(C(C)C(=O)NCc3ccncc3)nc12 (configuration not stated) | -2.93
103 | COc1ccc(CN2CC[C@H]3[C@H]2CCN3C(=O)c2cnn(C)c2)cc1 | -0.0414
104 | CSCc1ccc(CNCCCN2CCOCC2)o1 | -12.3
105 | CC(=O)NCCc1ccc(S(=O)(=O)Nc2cc(F)ccc2C)s1 | 3.63
106 | CCC(CC)CN1CCN(CC(=O)Nc2ccc3nsnc3c2)CC1 | 3.54
107 | CN(C)c1ncnc2c1CCN(C(=O)c1cccnc1)CC2 | -6.66
108 | CN(c1nccc(-c2cnc3sccn3c2=O)n1)C1CCCCC1 | -3.44
109 | CCOCCC(=O)Nc1ccnn1-c1ccc(Cl)cc1 | -3.17
110 | CC(NC(=O)NCCCN(C)S(C)(=O)=O)c1ccc(Cl)cc1 (configuration not stated) | -7.7
111 | CN1CCN(c2ncccn2)CC(C(=O)N(C)C)C1 (configuration not stated) | -5.5
112 | NC(=O)CN1CCCC(CCCc2ccccn2)(C(N)=O)C1 (configuration not stated) | -3
